In publication PMC12040169 (PLOS Biology, 2025):

experiment: in vitro; details: human, hela cells, % viability

Row | Structure (SMILES) | viability at 28.5 h, 10 µM
1 | O=C(NCCN1CCOCC1)c1cc(-c2ccc(Cl)cc2Cl)nc2ccccc12 [CBK265379] | 113%
2 | O=C(CCN1C(=O)c2ccc([N+](=O)[O-])cc2C1=O)Nc1ccccc1-c1ccccc1 [CBK265134] | 103%
3 | COc1ccc2[nH]c3c(c2c1)CCN(C=O)C31CCN(Cc2cccc(Cl)c2)C1 (stereo not shown) [CBK040376] | 97.3%
4 | Nc1nc2cccnc2cc1-c1ccc2c(c1)OCCCO2 [CBK081201] | 97.7%
5 | COc1ccc(CN2CCNC(=O)C2CC(=O)O)c(F)c1 (stereo not shown) [CBK270143] | 95.6%
6 | N=C(N)SCCCCCSC(=N)N [CBK278314B] | 88.2%
7 | CN(CC(=O)NCc1ccccn1)S(=O)(=O)c1ccc(Br)cc1 [CBK265127] | 94.4%
8 | Cc1ccc2[nH]c(-c3cccc(NC(=O)c4cccc(CN5CCCC5=O)c4)c3)nc2c1 [CBK285838] | 85.8%
9 | O=C1NC(Nc2ccc(SCCN3CCOCC3)cc2)c2ccccc21 (stereo not shown) [CBK010123] | 93.6%
10 | O=C(NCC1CCCO1)NC(=O)c1nsc2ccccc12 (stereo not shown) [CBK019827] | 113%
11 | O=[N+]([O-])c1ccc(CN2CCN(c3nccnc3OCc3ccc(Cl)c(Cl)c3)CC2)cc1 [CBK083076T] | 101%
12 | Cc1cc(C)c2nonc2c1S(=O)(=O)NCCN1CCCCC1CO (stereo not shown) [CBK306966] | 94.8%
13 | Cc1noc(C)c1S(=O)(=O)NC1CCN(Cc2ccccc2)CC1 [CBK062028] | 83.4%
14 | CCC1c2cccn2CCN1C(=O)c1cc(-c2ccccn2)n[nH]1 (stereo not shown) [CBK283224] | 102%
15 | CC(=O)N[C@H]1C[C@@H](Cc2cc(CCO)on2)C1(C)C [CBK289243] | 99.7%
16 | C#C[C@H]1C[N@@]2CC[C@H]1C[C@@H]2CNC(=O)Nc1cccc(C#N)c1 [CBK288754] | 97.2%
17 | COc1cc(OC)cc(C(=O)Nc2ncccc2OCCCC#N)c1 [CBK304899] | 88.3%
18 | CS(=O)(=O)c1ccc(-c2ccc(CN3CCN(C(=O)Cc4ccc(F)cc4F)CC3)cn2)cc1 [CBK162618T] | 122%
19 | Cc1cc(Cl)c(OCCN2CCC(C)CC2)c(Br)c1 [CBK265088G] | 78.3%
20 | CC1CCN(c2ccc([N+](=O)[O-])c(N3CCC(C)CC3)c2)CC1 [CBK001367] | 92.5%
21 | CCn1cc(C(=O)O)c(=O)c2cc(F)c(N3CCN(C(=S)Nc4cccc5ccccc45)CC3)cc21 [CBK265809] | 97.4%
22 | O=C(Nc1ccc(N2CCOCC2)cc1)c1ccc(-n2cnnc2)cc1Cl [CBK269889] | 91%

Row | Structure (SMILES) | viability at 28.5 h, 10 µM
23 | O=C(Nc1c(F)cc(F)cc1OC1CCNCC1)c1coc2c1C(=O)CCC2 [CBK050331T] | 93.9%
24 | CC(=O)N1CCN(CC(O)Cn2c3ccccc3c3ccccc32)CC1 (stereo not shown) [CBK305588] | 102%
25 | Cc1cc(C)cc(-c2ccc(CC3(C(=O)NC(C)CO)CCOCC3)cc2)c1 (stereo not shown) [CBK286523] | 110%
26 | CC(C)CN1CCCN(S(=O)(=O)c2ccc(-n3cnc(Cl)c3Cl)cc2)CC1 [CBK063017] | 88.5%
27 | CC(=O)Nc1cc(C(=O)NCCc2ccccc2)ccc1S(=O)(=O)c1ccc(C)cc1 [CBK071771] | 89.3%
28 | Cc1cn([C@H]2C[C@@H](O)[C@@H](CO)O2)c(N)nc1=O [CBK201327] | 100%
29 | CC(=O)Nc1ccc(CNC(=O)CN2CCCC(c3ncc[nH]3)C2)cc1 (stereo not shown) [CBK307718] | 96.5%
30 | O=C(O)c1ccc(NS(=O)(=O)c2ccc(Cl)cc2)cc1O [CBK200023] | 106%
31 | COc1cc2c(cc1OC)CN(C(=O)CSc1nc3c(c(-c4cccs4)c1C#N)CN(C)CC3)CC2 [CBK267462] | 91.3%
32 | CCn1nc2c(C)cc3cc(OC)ccc3n2c1=O [CBK283823] | 74.6%
33 | O=S(=O)(NCCc1csc(-c2cccnc2)n1)c1cccnc1 [CBK287546] | 91.8%
34 | CCCn1c(O)cc(=O)nc1SCC(=O)NCc1ccc(OC)c(OC)c1 [CBK295592] | 101%
35 | COc1cccc(NC(=O)c2sc(N)nc2-c2ccccc2)c1 [CBK072023] | 95.2%
36 | N#Cc1ccc(Oc2cccc(C(F)(F)F)c2)c(F)c1 [CBK002801] | 88.3%
37 | Cc1ccc(C(C)C)c(OCCSc2nc3c(N)ncnc3[nH]2)c1 [CBK266941] | 94.3%
38 | O=C(c1ccccc1F)N1CCC(c2cc3ncccc3[nH]2)CC1 [CBK283391] | 86.5%
39 | CCCn1c(C)nnc1CN(CC1CCCO1)C1CCCC1 (stereo not shown) [CBK304465] | 94.8%
40 | Cc1ccc(NC(=O)N(Cc2ccccc2Br)CC(C)(C)CN)cc1[N+](=O)[O-] [CBK002436C] | 111%
41 | O=C(NCCO)c1cccc(-c2cc(N3CCCC3CO)n3nccc3n2)c1 (stereo not shown) [CBK037187] | 96.7%
42 | Cn1cncc1C(=O)N1CCc2ccccc21 [CBK200412] | 86.7%
43 | CCNc1ncnc2c1oc1ccccc12 [CBK263298] | 89.8%
44 | Cc1ccc(NC(=O)c2cnc3scc(C)n3c2=O)cc1 [CBK287454] | 107%

Row | Structure (SMILES) | viability at 28.5 h, 10 µM
45 | CCC(C)NC(=O)Cn1cccc2cc(C3CCCNC3)nc1-2 (stereo not shown) [CBK285087] | 98.2%
46 | Cc1ccc(-c2cc(C3CCN(C(=O)c4cnn(C)c4)C3)[nH]n2)cc1 (stereo not shown) [CBK285266] | 85.4%
47 | CS(=O)(=O)NC1CCN(C2CCc3c(F)cc(F)cc32)C1 (stereo not shown) [CBK305101] | 90.1%
48 | CS(=O)(=O)c1ccc(-c2ccc(C(=O)N3CCN(C(=O)OCc4ccccc4)CC3)cn2)cc1 [CBK160189] | 107%
49 | O=S1(=O)CCN(Cc2cnn(-c3cncnc3)n2)CC1 [CBK112878] | 100%
50 | Brc1ccc(-c2ccnc3nc(-c4ccncc4)nn23)cc1 [CBK288623] | 102%
51 | O=c1[nH]c2ccccc2n1C1CCN(S(=O)(=O)c2cccs2)CC1 [CBK149689] | 98.4%
52 | CSc1ncccc1C(=O)NCc1ccc(NC(C)=O)cc1 [CBK305009] | 97%
53 | Cc1ccc(-c2nccnc2OCCn2cccc2)cc1C [CBK106864] | 101%
54 | Cc1ccc(C2CC(=O)C(=CNCCN3CCN(C(=S)Nc4ccccc4)CC3)C(=O)C2)cc1 (stereo not shown) [CBK263665] | 96.3%
55 | CCCCOc1ccc(Sc2nc(C)cc(C)n2)cc1 [CBK009219] | 92.1%
56 | CCCc1cc(C(=O)N2CCN(C)C3(CCNC(=O)CC3)C2)ccn1 (stereo not shown) [CBK306815] | 96.2%
57 | O=C1CC(N2CCN(Cc3ccc4c(c3)OCO4)CC2)C(=O)N1c1cc(Cl)cc(Cl)c1 (stereo not shown) [CBK074554] | 94.5%
58 | CCn1cc(-c2cncn2CC(C)N2CCCCC2)cn1 (stereo not shown) [CBK281556] | 103%
59 | NC(=O)C1(N2CCCCC2)CCN(CC(=O)Nc2ccc(Br)cc2)CC1 [CBK268364] | 86.2%
60 | CCN(CC)C(=O)CN1C(=O)N2CCN=C2c2ccccc21 [CBK283944] | 94.9%
61 | COC(=O)c1c(NC(=S)Nc2ccn(C)n2)sc2c1CCCCC2 [CBK266888] | 106%
62 | O=C(Nc1ccc2c(c1)OCO2)Nc1c(Br)cnc2ncccc12 [CBK105596] | 93.4%
63 | Cc1sc2[nH]c(CCC(=O)N3CCCC(C)CC3)nc(=O)c2c1C (stereo not shown) [CBK305807] | 103%
64 | CCCCCOc1ccc(NS(=O)(=O)c2cccc(C(=O)O)c2)cc1 [CBK299795] | 103%
65 | Cc1nn(C)cc1-c1cncn1Cc1ccc2c(c1)CCCO2 [CBK281797] | 90.4%
66 | O=C(Nc1ccc(-c2nc3ccc(-c4nc5ccc(NC(=O)c6cccc7ccccc67)cc5[nH]4)cc3[nH]2)cc1)c1cccc2ccccc12 [CBK261161] | 94.4%

Row | Structure (SMILES) | viability at 28.5 h, 10 µM
67 | Cc1ccc(-c2noc(C(C)NC(=O)C3(Cn4ccnc4)CC3)n2)cc1 (stereo not shown) [CBK307661] | 113%
68 | CC(=O)Nc1ccccc1NC(=O)C(C)Oc1ccc(Cl)cc1Cl (stereo not shown) [CBK263954] | 96.8%
69 | CCOC(=O)Cc1csc(NS(=O)(=O)c2cc(C)c(Cl)cc2Cl)n1 [CBK012872] | 91.3%
70 | CCCCC(Sc1ccc2nnc(-c3ccccn3)n2n1)C(=O)O (stereo not shown) [CBK287622] | 112%
71 | O=C(C1c2ccccc2Oc2ccccc21)N1C2CCC1CC(O)(c1ccco1)C2 (stereo not shown) [CBK286169] | 93.8%
72 | CS(=O)(=O)N(Cc1ccccc1)c1ccc(C(=O)Nc2ccccc2Cl)cc1 [CBK262745] | 86.9%
73 | Cc1nc(=O)c(-c2ccccc2)c(C)n1CCc1c[nH]cn1 [CBK287900] | 89.3%
74 | Cc1nc2c(c(=O)[nH]1)CCN(C(=O)c1cc3c(s1)CCC3)C2 [CBK283751] | 105%
75 | Cc1ccc(C(O)CN2CCC(O)(c3ccccc3F)CC2)cc1 (stereo not shown) [CBK283310] | 93.8%
76 | COc1cccc(CN2CCCC3(C2)NCCc2c3[nH]c3cc(F)ccc23)c1 (stereo not shown) [CBK039786] | 87.5%
77 | O=C(Cc1csc(-c2ccc(Cl)cc2)n1)NCC1CCCN1 (stereo not shown) [CBK160982] | 106%
78 | O=C1CC[C@@H](NCc2ccco2)[C@H](c2cc(F)cc(F)c2)N1 [CBK283127] | 102%
79 | Cc1cc(C)n(C(C)CC(=O)NCC(C)N2CCC(C)CC2)n1 (stereo not shown) [CBK282104] | 108%
80 | Cc1cc(C(=O)N2CCC(Cc3ccccc3)CC2)n[nH]1 [CBK200187] | 84.2%
81 | O=C(CN(c1ccc(F)cc1)S(=O)(=O)c1ccccc1)Nc1ccc2c(c1)OCCO2 [CBK265215] | 94.8%
82 | CC(C)COc1ccccc1C(=O)NCCC(=O)O [CBK033507] | 102%
83 | O=S(=O)(c1ccc(C(F)(F)F)cc1Cl)N1CCN(Cc2ccc(F)cc2F)CC1 [CBK062739] | 107%
84 | CN(C(=O)NC1CCCc2c1cnn2CCO)c1ccccc1F (stereo not shown) [CBK304024] | 109%
85 | FC(F)(F)c1ccc(Sc2cccc3ccccc23)nc1 [CBK089553] | 93.7%
86 | COc1cccc(/C=C2\SC(=S)N(CC(=O)NNC(=O)c3ccccc3O)C2=O)c1 [CBK262202] | 91.1%

same assay, conditions: human, hela cells, % viability, bulk resorufin, single well

Row | Structure (SMILES) | viability at 28.5 h, 10 µM
87 | CCC(C(=O)c1c[nH]c2ccc(OC)cc12)N(C)C (stereo not shown) [CBK022923] | 96%
88 | O=[N+]([O-])c1ccc(Cl)cc1CN1CCN(c2ccccc2)CC1 [CBK261556] | 89.3%
